From ChEMBL document CHEMBL1201862, “PubChem BioAssay data set” (2004)
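Briefly, cells in 96-well plates were exposed to five compound concentrations for 48 h, and endpoints were estimated by linear interpolation. Here, GI50 denotes the concentration required for 50% inhibition of growth.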 Active and inactive are the calls of the source. Cut-off read from the data, not from the text of the source: active = GI50 up to about 1.1 µM and inactive = higher.

Key:
Test in all cases: DTP human tumour cell line panel, 48 h
786-0 = tested on: 786-0
A498 = tested on: A498
DU-145 = tested on: DU-145
HL-60 = tested on: HL-60
HOP-62 = tested on: HOP-62
HT-29 = tested on: HT-29
MDA-MB-435 = tested on: MDA-MB-435
MDA-N = tested on: MDA-N
NCI/ADR-RES = tested on: NCI/ADR-RES
OVCAR-4 = tested on: OVCAR-4
OVCAR-5 = tested on: OVCAR-5
PC-3 = tested on: PC-3
SK-MEL-28 = tested on: SK-MEL-28
SK-MEL-5 = tested on: SK-MEL-5
SNB-19 = tested on: SNB-19
T47D = tested on: T47D

| Structure (SMILES) | GI50 (786-0) | GI50 (A498) | GI50 (DU-145) | GI50 (HL-60) | GI50 (HOP-62) | GI50 (HT-29) | GI50 (MDA-MB-435) | GI50 (MDA-N) | GI50 (NCI/ADR-RES) | GI50 (OVCAR-4) | GI50 (OVCAR-5) | GI50 (PC-3) | GI50 (SK-MEL-28) | GI50 (SK-MEL-5) | GI50 (SNB-19) | GI50 (T47D) |
| --- | --- | --- | --- | --- | --- | --- | --- | --- | --- | --- | --- | --- | --- | --- | --- | --- |
| CN(C)c1ccc(C=c2c3ccccc3n3c2c2ccccc2[n+]3C)cc1 | 0.301 µM (active) | 1.69 µM (inactive) | 1.3 µM (inactive) | 0.051 µM (active) | 0.942 µM (active) | 0.689 µM (active) | 0.428 µM (active) | 0.526 µM (active) | 3.93 µM (inactive) | 1.18 µM (inactive) | 3.02 µM (inactive) | 0.353 µM (active) | 0.521 µM (active) | 0.112 µM (active) | 1.25 µM (inactive) | 0.248 µM (active) |
| Cn1c2ccccc2n2c(=O)c3cc([N+](=O)[O-])ccc3c(C#N)c12 | 22.3 µM (inactive) | – | > 100 µM (inactive) | > 100 µM (inactive) | 27.5 µM (inactive) | > 100 µM (inactive) | > 100 µM (inactive) | > 100 µM (inactive) | > 100 µM (inactive) | 65.6 µM (inactive) | > 100 µM (inactive) | > 100 µM (inactive) | > 100 µM (inactive) | > 100 µM (inactive) | > 100 µM (inactive) | > 100 µM (inactive) |
| O=C1/C(=C\c2ccccc2)c2ccccc2N1Cc1ccccc1 | 7.01 µM (inactive) | > 10 µM (inactive) | 12.4 µM (inactive) | 4.08 µM (inactive) | 13.1 µM (inactive) | 6.15 µM (inactive) | 3.72 µM (inactive) | 5.18 µM (inactive) | 10.6 µM (inactive) | 12.6 µM (inactive) | 10.4 µM (inactive) | 11.1 µM (inactive) | 11.1 µM (inactive) | 11 µM (inactive) | 10.3 µM (inactive) | 6.61 µM (inactive) |
| COC(OC)(c1ccccc1)C(Br)Br | 23.2 µM (inactive) | > 100 µM (inactive) | > 100 µM (inactive) | 23.6 µM (inactive) | > 100 µM (inactive) | 57.4 µM (inactive) | 20.2 µM (inactive) | 31.7 µM (inactive) | 51.8 µM (inactive) | – | > 100 µM (inactive) | > 100 µM (inactive) | > 100 µM (inactive) | 67.5 µM (inactive) | > 100 µM (inactive) | 39.7 µM (inactive) |
| O=C1CS(=O)(=O)C(c2cccc(Oc3ccccc3)c2)N1c1ccccc1 (stereo unspecified) | 17.8 µM (inactive) | 17.9 µM (inactive) | 48 µM (inactive) | 21.1 µM (inactive) | 36.7 µM (inactive) | 26.5 µM (inactive) | 27.4 µM (inactive) | 17.9 µM (inactive) | 22 µM (inactive) | 26.1 µM (inactive) | 31.6 µM (inactive) | 19.1 µM (inactive) | 26.2 µM (inactive) | 14.9 µM (inactive) | 43.3 µM (inactive) | 15.3 µM (inactive) |
| NS(=O)(=O)c1ccc(NNc2c3ccccc3nc3c(C(=O)Nc4ccc(S(=O)(=O)Nc5ncccn5)cc4)cccc23)cc1 | > 25 µM (inactive) | – | > 25 µM (inactive) | > 25 µM (inactive) | > 25 µM (inactive) | 10.2 µM (inactive) | > 25 µM (inactive) | > 25 µM (inactive) | > 25 µM (inactive) | > 25 µM (inactive) | > 25 µM (inactive) | > 25 µM (inactive) | 10.1 µM (inactive) | > 25 µM (inactive) | > 25 µM (inactive) | > 25 µM (inactive) |
| C=C(Br)CN(C#N)CC(=C)Br | > 100 µM (inactive) | > 100 µM (inactive) | > 100 µM (inactive) | 8.85 µM (inactive) | > 100 µM (inactive) | > 100 µM (inactive) | > 100 µM (inactive) | > 100 µM (inactive) | > 100 µM (inactive) | > 100 µM (inactive) | > 100 µM (inactive) | > 100 µM (inactive) | > 100 µM (inactive) | > 100 µM (inactive) | > 100 µM (inactive) | > 100 µM (inactive) |
| c1csc(-c2ccsc2-c2ccsc2)c1 | 97.3 µM (inactive) | > 100 µM (inactive) | > 100 µM (inactive) | 33.1 µM (inactive) | > 100 µM (inactive) | > 100 µM (inactive) | 39.3 µM (inactive) | 73.1 µM (inactive) | 76 µM (inactive) | 84.1 µM (inactive) | > 100 µM (inactive) | 41.3 µM (inactive) | > 100 µM (inactive) | 70 µM (inactive) | – | > 100 µM (inactive) |
| NCCC1([N+](=O)[O-])C=CN=CC1 (stereo unspecified) | > 100 µM (inactive) | > 100 µM (inactive) | > 100 µM (inactive) | > 100 µM (inactive) | – | > 100 µM (inactive) | > 100 µM (inactive) | > 100 µM (inactive) | > 100 µM (inactive) | > 100 µM (inactive) | > 100 µM (inactive) | > 100 µM (inactive) | > 100 µM (inactive) | > 100 µM (inactive) | > 100 µM (inactive) | > 100 µM (inactive) |
| COc1ccccc1CNCc1nc2ccccc2[nH]1 | > 100 µM (inactive) | > 100 µM (inactive) | > 100 µM (inactive) | 80.5 µM (inactive) | > 100 µM (inactive) | 78.7 µM (inactive) | > 100 µM (inactive) | > 100 µM (inactive) | > 100 µM (inactive) | > 100 µM (inactive) | > 100 µM (inactive) | > 100 µM (inactive) | > 100 µM (inactive) | 48.5 µM (inactive) | > 100 µM (inactive) | > 100 µM (inactive) |
| CCOCC(=O)N[C@H]1CCc2cc(OC(=O)COCC)c(OC)c(OC)c2-c2ccc(SC)c(=O)cc21 | 0.036 µM (active) | 0.0472 µM (active) | 0.0222 µM (active) | 0.00473 µM (active) | 0.0533 µM (active) | 0.0177 µM (active) | 0.00195 µM (active) | 0.0022 µM (active) | 1.87 µM (inactive) | 10.5 µM (inactive) | 0.604 µM (active) | 0.0224 µM (active) | 0.0143 µM (active) | 0.00478 µM (active) | 0.885 µM (active) | > 10 µM (inactive) |
| Cc1cc(O)cc(O)c1/N=N/c1ccc([N+](=O)[O-])cc1 | – | 18.4 µM (inactive) | 22.9 µM (inactive) | 5.16 µM (inactive) | > 100 µM (inactive) | 29.3 µM (inactive) | 13.8 µM (inactive) | 15.6 µM (inactive) | 10.6 µM (inactive) | 9.64 µM (inactive) | 27.7 µM (inactive) | 16 µM (inactive) | 16.6 µM (inactive) | 12.6 µM (inactive) | 37.3 µM (inactive) | 9.14 µM (inactive) |
| Cc1cccc(-c2cc(=S)c3cc(N4CCCC4)ccc3[nH]2)c1 | > 100 µM (inactive) | > 100 µM (inactive) | > 100 µM (inactive) | – | > 100 µM (inactive) | – | > 100 µM (inactive) | > 100 µM (inactive) | > 100 µM (inactive) | > 100 µM (inactive) | > 100 µM (inactive) | > 100 µM (inactive) | > 100 µM (inactive) | > 100 µM (inactive) | > 100 µM (inactive) | > 100 µM (inactive) |
| CCOC(=O)C1=C(O)C2C3CC4C2C(O)=C(C(=O)OCC)C2C1C3C42 (stereo unspecified) | > 100 µM (inactive) | > 100 µM (inactive) | > 100 µM (inactive) | 24.8 µM (inactive) | > 100 µM (inactive) | > 100 µM (inactive) | > 100 µM (inactive) | > 100 µM (inactive) | 18.7 µM (inactive) | > 100 µM (inactive) | > 100 µM (inactive) | > 100 µM (inactive) | > 100 µM (inactive) | > 100 µM (inactive) | > 100 µM (inactive) | > 100 µM (inactive) |
| CCC(C)[C@@H](NC1=C(Cl)C(=O)c2c(O)ccc(O)c2C1=O)C(=O)OC (stereo partly specified) | 2.43 µM (inactive) | – | 5.19 µM (inactive) | 2 µM (inactive) | 3.51 µM (inactive) | 3.01 µM (inactive) | 3.55 µM (inactive) | 3.56 µM (inactive) | 2.52 µM (inactive) | 2.84 µM (inactive) | 5.12 µM (inactive) | 3.86 µM (inactive) | – | 2.02 µM (inactive) | > 10 µM (inactive) | > 10 µM (inactive) |
| CC(NNC(=O)c1cc[n+]([BH2-]C#N)cc1)c1cccc(F)c1 (stereo unspecified) | > 100 µM (inactive) | > 100 µM (inactive) | > 100 µM (inactive) | 50.5 µM (inactive) | – | – | > 100 µM (inactive) | > 100 µM (inactive) | > 100 µM (inactive) | 69.8 µM (inactive) | > 100 µM (inactive) | > 100 µM (inactive) | > 100 µM (inactive) | 94.2 µM (inactive) | > 100 µM (inactive) | > 100 µM (inactive) |
| C[O+]=C1C=CC(=C2SC(c3ccccc3)(c3ccccc3)c3ccccc32)C=C1.[O-][Cl+3]([O-])([O-])[O-] | 17.2 µM (inactive) | 24 µM (inactive) | 26.2 µM (inactive) | 17 µM (inactive) | 28 µM (inactive) | 15 µM (inactive) | 18.6 µM (inactive) | 21.1 µM (inactive) | 30.1 µM (inactive) | 14.6 µM (inactive) | 19.5 µM (inactive) | 20.9 µM (inactive) | 21.1 µM (inactive) | 16.6 µM (inactive) | 39.8 µM (inactive) | 20.8 µM (inactive) |
| C=C1CC(Cn2cc(C)c(=O)[nH]c2=O)(c2ccc(-c3ccccc3)cc2)OC1=O (stereo unspecified) | 0.817 µM (active) | 3.34 µM (inactive) | 2.35 µM (inactive) | 0.415 µM (active) | 13.1 µM (inactive) | 0.875 µM (active) | 1.8 µM (inactive) | 1.33 µM (inactive) | 1.33 µM (inactive) | 2.49 µM (inactive) | 9.46 µM (inactive) | 2.01 µM (inactive) | 1.78 µM (inactive) | 1.07 µM (active) | 13.8 µM (inactive) | 1.99 µM (inactive) |
